# Source: BindingDB's records for doi:10.1016/j.bmcl.2010.07.082 (Ligand Pharmaceuticals, 2010)
# Assay: Antagonist activity at CCR1 in human THP1 cells assessed as inhibition of CCL3-induced chemotaxis after 3 hrs
row,SMILES,IC50
1,O=C(Nc1ccc(C(F)(F)F)cc1)N1CCCC1c1nccn1Cc1ccc(Cl)cc1 (stereo not given) [2-(1-(4-chlorobenzyl)-1H-imidazol-2-yl)-N-(4-(trifluoromethyl)phenyl)pyrrolidine-1-carboxamide],16 nM
2,"O=C(Nc1ccc(C(F)(F)F)cc1)N1CCC[C@@H]1c1ncnn1Cc1ccc(Cl)cc1 [(R)-2-(1-(4-chlorobenzyl)-1H-1,2,4-triazol-5-yl)-N-(4-(trifluoromethyl)phenyl)pyrrolidine-1-carboxamide]",22 nM
3,O=C(Nc1ccc(C(F)(F)F)cc1)N1CCC[C@@H]1c1nnnn1Cc1ccc(Cl)cc1 [(R)-2-(1-(4-chlorobenzyl)-1H-tetrazol-5-yl)-N-(4-(trifluoromethyl)phenyl)pyrrolidine-1-carboxamide],6.5 nM
4,"O=C(Nc1ccc(C(F)(F)F)cc1)N1CCC[C@@H]1c1nncn1Cc1ccc(Cl)cc1 [(R)-2-(4-(4-chlorobenzyl)-4H-1,2,4-triazol-3-yl)-N-(4-(trifluoromethyl)phenyl)pyrrolidine-1-carboxamide]",4 nM
5,"Cc1nnc([C@H]2CCCN2C(=O)Nc2ccc(C(F)(F)F)cc2)n1Cc1ccc(Cl)cc1 [(R)-2-(4-(4-chlorobenzyl)-5-methyl-4H-1,2,4-triazol-3-yl)-N-(4-(trifluoromethyl)phenyl)pyrrolidine-1-carboxamide]",2.9 nM
